Experimental data: patent US7820670B2 (Alcon Research, Ltd., priority 2006, dated 2010)
Where a name gives a salt, the structure may show the parent alone.

Assays:
ROCK 2 = biological target: T1, ROCK 2 (Homo sapiens, UniProt O75116); assay: Rho kinase assay (IMAP ROCK-II kit, fluorescence polarization); format: biochemical; conditions: substrate 200 nM, ATP 10 μM, 60 min at 23° C.
T1 construct: purchased Molecular Devices, Sunnyvale, Calif
Experimental: (§1) The rho kinase assays were performed using a Biomek 2000 Robotic Workstation (Beckman Instruments, Palo Alto, Calif.) in a 96-well plate format. The assay was performed utilizing the IMAP ROCK-I and ROCK-II kits (Molecular Devices, Sunnyvale, Calif.) as follows. […] The substrate, enzyme, and ATP dilutions were made with the reaction buffer provided by the vendor. Test compounds were diluted in 10:10 DMSO-ethanol (vol/vol). For the actual assay, the various components were added into black, clear bottom, 96-well plates (Costar, Corning, N.Y.) in a final volume of 20μl per well. After the enzyme reaction (60 min at 23° C.), 60 μl of the binding solution was added per well and incubated for an additional 30 minutes in the dark at 23° C. Fluorescence polarization of the reaction mixtures was then measured on the Analyst™ HT instrument (Molecular Devices, Sunnyvale, Calif.).

ROCK 1 = ROCK 1 (Homo sapiens, UniProt Q13464); assay: Rho kinase assay (IMAP ROCK-I kit, fluorescence polarization)
Chain of ROCK 1 (Q13464 whole entry, species assumed): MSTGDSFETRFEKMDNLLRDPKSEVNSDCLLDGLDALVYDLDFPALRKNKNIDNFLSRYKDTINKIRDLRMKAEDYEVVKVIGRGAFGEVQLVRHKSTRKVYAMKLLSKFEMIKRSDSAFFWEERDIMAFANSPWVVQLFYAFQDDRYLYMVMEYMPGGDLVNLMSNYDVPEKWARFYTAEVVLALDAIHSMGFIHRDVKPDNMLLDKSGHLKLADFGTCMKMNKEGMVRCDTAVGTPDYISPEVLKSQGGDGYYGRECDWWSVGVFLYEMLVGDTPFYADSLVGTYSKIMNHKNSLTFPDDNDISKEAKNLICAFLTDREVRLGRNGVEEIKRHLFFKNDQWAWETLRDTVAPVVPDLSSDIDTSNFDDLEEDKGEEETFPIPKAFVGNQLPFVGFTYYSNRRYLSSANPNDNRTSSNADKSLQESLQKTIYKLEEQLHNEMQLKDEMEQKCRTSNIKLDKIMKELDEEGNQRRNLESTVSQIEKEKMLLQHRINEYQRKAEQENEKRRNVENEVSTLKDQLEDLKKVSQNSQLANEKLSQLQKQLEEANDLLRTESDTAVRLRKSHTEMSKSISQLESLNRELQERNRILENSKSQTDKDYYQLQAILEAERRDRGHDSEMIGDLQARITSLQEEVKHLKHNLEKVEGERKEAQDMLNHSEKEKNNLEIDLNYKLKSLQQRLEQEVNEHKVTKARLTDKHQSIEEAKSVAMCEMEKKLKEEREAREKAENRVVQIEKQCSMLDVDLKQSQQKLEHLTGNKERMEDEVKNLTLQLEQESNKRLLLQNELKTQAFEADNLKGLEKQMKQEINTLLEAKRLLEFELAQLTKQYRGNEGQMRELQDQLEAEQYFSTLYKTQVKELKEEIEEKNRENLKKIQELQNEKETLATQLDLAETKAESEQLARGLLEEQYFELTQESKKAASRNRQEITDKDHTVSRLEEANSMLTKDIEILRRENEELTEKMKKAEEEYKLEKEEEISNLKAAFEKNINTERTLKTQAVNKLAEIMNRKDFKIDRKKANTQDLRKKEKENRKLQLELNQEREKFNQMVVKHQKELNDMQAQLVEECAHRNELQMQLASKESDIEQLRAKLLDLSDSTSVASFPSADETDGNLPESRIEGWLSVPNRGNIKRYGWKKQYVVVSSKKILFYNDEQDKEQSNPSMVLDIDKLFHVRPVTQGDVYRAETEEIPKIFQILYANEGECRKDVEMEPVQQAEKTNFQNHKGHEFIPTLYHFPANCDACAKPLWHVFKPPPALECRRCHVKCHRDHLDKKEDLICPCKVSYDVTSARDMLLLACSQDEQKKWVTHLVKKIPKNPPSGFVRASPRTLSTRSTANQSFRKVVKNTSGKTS
Experimental: as §1

T1 sequence (O75116 whole entry, species assumed): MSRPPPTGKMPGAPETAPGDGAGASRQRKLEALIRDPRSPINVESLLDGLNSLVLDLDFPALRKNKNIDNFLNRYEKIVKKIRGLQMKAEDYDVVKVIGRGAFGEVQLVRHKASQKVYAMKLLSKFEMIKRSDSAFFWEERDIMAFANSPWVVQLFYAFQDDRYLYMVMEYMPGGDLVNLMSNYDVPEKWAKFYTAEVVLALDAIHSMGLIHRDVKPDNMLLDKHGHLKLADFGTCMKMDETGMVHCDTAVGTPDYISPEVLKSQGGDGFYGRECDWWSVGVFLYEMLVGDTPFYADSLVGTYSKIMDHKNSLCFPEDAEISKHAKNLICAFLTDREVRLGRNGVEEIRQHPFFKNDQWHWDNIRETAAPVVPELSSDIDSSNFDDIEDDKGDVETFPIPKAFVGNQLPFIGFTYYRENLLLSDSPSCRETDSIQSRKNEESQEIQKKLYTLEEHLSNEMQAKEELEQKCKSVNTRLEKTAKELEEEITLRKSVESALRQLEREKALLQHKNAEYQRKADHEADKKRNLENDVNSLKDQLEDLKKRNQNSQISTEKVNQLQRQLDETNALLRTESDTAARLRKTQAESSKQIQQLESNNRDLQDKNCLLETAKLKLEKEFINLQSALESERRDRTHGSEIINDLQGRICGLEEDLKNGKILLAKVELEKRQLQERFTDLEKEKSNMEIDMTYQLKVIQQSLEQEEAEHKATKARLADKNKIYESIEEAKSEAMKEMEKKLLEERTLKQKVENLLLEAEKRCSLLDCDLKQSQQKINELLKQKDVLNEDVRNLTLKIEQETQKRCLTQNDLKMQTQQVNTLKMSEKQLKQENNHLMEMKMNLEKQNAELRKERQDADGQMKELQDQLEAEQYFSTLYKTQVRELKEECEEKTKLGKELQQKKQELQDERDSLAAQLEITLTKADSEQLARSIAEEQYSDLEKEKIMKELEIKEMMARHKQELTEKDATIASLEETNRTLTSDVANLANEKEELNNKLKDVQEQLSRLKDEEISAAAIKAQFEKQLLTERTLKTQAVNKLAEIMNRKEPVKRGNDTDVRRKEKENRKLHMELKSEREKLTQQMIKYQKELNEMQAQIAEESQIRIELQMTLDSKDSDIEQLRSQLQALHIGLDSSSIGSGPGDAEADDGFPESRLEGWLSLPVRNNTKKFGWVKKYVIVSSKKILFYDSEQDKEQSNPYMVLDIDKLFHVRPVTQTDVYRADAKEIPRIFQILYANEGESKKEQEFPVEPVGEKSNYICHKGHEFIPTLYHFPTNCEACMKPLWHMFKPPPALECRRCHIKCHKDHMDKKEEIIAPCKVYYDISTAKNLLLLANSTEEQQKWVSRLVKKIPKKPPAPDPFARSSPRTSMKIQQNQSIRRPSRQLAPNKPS

Row | Structure (SMILES) | IC50 (ROCK 2) [µM] | IC50 (ROCK 1) [µM]
1 | COc1ccccc1-c1cnc2ccc(NCc3ccccn3)nn12 [Example 2, 3-(2-Methoxyphenyl)-N-(pyridin-2-ylmethyl)imidazo[1,2-b]pyridazin-6-amine fumarate] | > 100 | > 100
2 | CCCNc1ccc2ncc(-c3cc(C)cs3)n2n1 [Example 4, 3-(4-Methylthiophen-2-yl)-N-propylimidazo[1,2-b]pyridazin-6-amine] | > 100 | > 100
3 | CCCC/C=C/c1cnc2ccc(NCCN(C)C)nn12 [Example 8, (E)-N^1-(3-(Hex-1-enyl)imidazo[1,2-b]pyridazin-6-yl)-N^2,N^2-dimethylethane-1,2-diamine fumarate] | 65 | 58
4 | CCCC/C=C/c1cnc2ccc(NC(CC)CO)nn12 (stereo not shown) [Example 10, (E)-2-(3-(Hex-1-enyl)imidazo[1,2-b]pyridazin-6-ylamino)butan-1-ol] | > 100 | 78
5 | Cc1cnc2ccc(NCCN(C)C)nn12 [Example 11, N^1,N^1-Dimethyl-N^2-(3-methylimidazo[1,2-b]pyridazin-6-yl)ethane-1,2-diamine] | 79 | 36
6 | COCCNc1ccc2ncc(C)n2n1 [Example 12, N-(2-Methoxyethyl)-3-methylimidazo[1,2-b]pyridazin-6-amine] | 97 | > 100
7 | Clc1cnc2ccc(NCCCN3CCOCC3)nn12 [Example 14, 3-Chloro-N-(3-morpholinopropyl)imidazo[1,2-b]pyridazin-6-amine hydrochloride] |  | 37
8 | Cc1cnc2ccc(NCc3ccccn3)nn12 [Example 15, 3-Methyl-N-(pyridin-2-ylmethyl)imidazo[1,2-b]pyridazin-6-amine hydrochloride] | 16 | 67
9 | Cc1cnc2ccc(NCCCN3CCOCC3)nn12 [Example 16, 3-Methyl-N-(3-morpholinopropyl)imidazo[1,2-b]pyridazin-6-amine fumarate] | > 100 | > 100
10 | CCC/C=C/c1cnc2ccc(NCCCN3CCOCC3)nn12 [Example 18, (E)-N-(3-Morpholinopropyl)-3-(pent-1-enyl)imidazo[1,2-b]pyridazin-6-amine hydrochloride] | 88 | 43
11 | C1=C(c2cnc3ccc(NCCCN4CCOCC4)nn23)CCCC1 [Example 20, 3-Cyclohexenyl-N-(3-morpholinopropyl)imidazo[1,2-b]pyridazin-6-amine hydrochloride] | > 100 | 55
12 | C1=C(c2cnc3ccc(NCc4ccccn4)nn23)CCCC1 [Example 21, 3-Cyclohexenyl-N-(pyridin-2-ylmethyl)imidazo[1,2-b]pyridazin-6-amine hydrochloride] | 200 | > 100
13 | CCCCC/C=C/c1cnc2ccc(NCCCN3CCOCC3)nn12 [Example 22, (E)-3-(Hept-1-enyl)-N-(3-morpholinopropyl)imidazo[1,2-b]pyridazin-6-amine hydrochloride] | 120 | 38
14 | OCc1cnc2ccc(NCCCN3CCOCC3)nn12 [Example 24, (6-(3-Morpholinopropylamino)imidazo[1,2-b]pyridazin-3-yl)methanol hydrochloride] | > 100 | > 100
15 | OCc1cnc2ccc(NCc3ccccn3)nn12 [Example 25, (6-(Pyridin-2-ylmethylamino)imidazo[1,2-b]pyridazin-3-yl)methanol hydrochloride] | > 100 | > 100
16 | CCCC/C=C\c1cnc2ccc(NCCCN3CCOCC3)nn12 [Example 27, (Z)-3-(Hex-1-enyl)-N-(3-morpholinopropyl)imidazo[1,2-b]pyridazin-6-amine hydrochloride] | 88 | 43
17 | CCCCC#Cc1cnc2ccc(NCc3ccccn3)nn12 [Example 28, 3-(Hex-1-ynyl)-N-(pyridin-2-ylmethyl)imidazo[1,2-b]pyridazin-6-amine hydrochloride] | > 100 | > 100
18 | CCCCCCc1cnc2ccc(NCc3ccccn3)nn12 [Example 29, 3-Hexyl-N-(pyridin-2-ylmethyl)imidazo[1,2-b]pyridazin-6-amine hydrochloride] | 17 | 42
19 | COCc1cnc2ccc(NCCCN3CCOCC3)nn12 [Example 30, 3-(Methoxymethyl)-N-(3-morpholinopropyl)imidazo[1,2-b]pyridazin-6-amine hydrochloride] | > 100 | > 100
20 | CCOCc1cnc2ccc(NCCCN3CCOCC3)nn12 [Example 31, 3-(Ethoxymethyl)-N-(3-morpholinopropyl)imidazo[1,2-b]pyridazin-6-amine hydrocloride] | > 100 | > 100
21 | CCOCc1cnc2ccc(NCc3ccccn3)nn12 [Example 32, 3-(Ethoxymethyl)-N-(pyridin-2-ylmethyl)imidazo[1,2-b]pyridazin-6-amine hydrochloride] | > 100 | > 100
22 | c1ccc(CNc2ccc3nccn3n2)nc1 [Example 33, N-(Pyridin-2-ylmethyl)imidazo[1,2-b]pyridazin-6-amine hydrochloride] | 13 | > 100
23 | COCc1cnc2ccc(NCc3ccccn3)nn12 [Example 34, hydrochloride] | > 100 | > 100
24 | c1cn2nc(NCCCN3CCOCC3)ccc2n1 [Example 35, N-(3-Morpholinopropyl)imidazo[1,2-b]pyridazin-6-amine hydrochloride] | > 100 | > 100
25 | CCCC/C=C/c1cnc2ccc(NCCCN3CCN(C)CC3)nn12 [Example 38, (E)-3-(Hex-1-enyl)-N-(3-(4-methylpiperazin-1-yl)propyl)imidazo[1,2-b]pyridazin-6-amine hydrochloride] | 97 | 47
26 | CCCC/C=C/c1cnc2ccc(NCCN(CC)CC)nn12 [Example 40, (E)-N^1,N^1-Diethyl-N^2-(3-(hex-1-enyl)imidazo[1,2-b]pyridazin-6-yl)ethane-1,2-diamine hydrochloride] | > 100 | > 100
27 | CCCC/C=C/c1cnc2ccc(NCc3cnc(C)cn3)nn12 [Example 44, (E)-3-(Hex-1-enyl)-N-((5-methylpyrazin-2-yl)methyl)imidazo[1,2-b]pyridazin-6-amine] | 34 | 22

Now from value to compound:

Row | IC50 (ROCK 2) [µM] | IC50 (ROCK 1) [µM] | Structure (SMILES)
28 | 69 | 17 | COc1ccc(-c2cnc3ccc(NCc4ccccn4)nn23)cc1 [Example 1, 3-(4-Methoxyphenyl)-N-(pyridin-2-ylmethyl)imidazo[1,2-b]pyridazin-6-amine]
29 | 56 | 12 | c1n[nH]cc1-c1cnc2ccc(N3CCOCC3)nn12 [Example 3, 4-(3-(1H-Pyrazol-4-yl)imidazo[1,2-b]pyridazin-6-yl)morpholine]
30 | > 100 | 9.7 | CCCC/C=C/c1cnc2ccc(N3CCOCC3)nn12 [Example 5, (E)-4-(3-(Hex-1-enyl)imidazo[1,2-b]pyridazin-6-yl)morpholine fumarate]
31 | 33 | 30 | CCCC/C=C/c1cnc2ccc(NCCCO)nn12 [Example 6, (E)-3-(3-(Hex-1-enyl)imidazo [1,2-b]pyridazin-6-ylamino)propan-1-ol fumarate]
32 | 20 | 35 | CCCC/C=C/c1cnc2ccc(NCCOC)nn12 [Example 7, (E)-3-(Hex-1-enyl)-N-(2-methoxyethyl)imidazo[1,2-b]pyridazin-6-amine fumarate]
33 | 3.7 | 7 | CCCC/C=C/c1cnc2ccc(NCc3ccccn3)nn12 [Example 9, (E)-3-(Hex-1-enyl)-N-(pyridin-2-ylmethyl)imidazo[1,2-b]pyridazin-6-amine fumarate]
34 | 17 | 25 | Clc1cnc2ccc(NCc3ccccn3)nn12 [Example 13, 3-Chloro-N-(pyridin-2-ylmethyl)imidazo[1,2-b]pyridazin-6-amine]
35 | > 100 | 28 | CCCCCCc1cnc2ccc(NCCCN3CCOCC3)nn12 [Example 17, 3-Hexyl-N-(3-morpholinopropyl)imidazo[1,2-b]pyridazin-6-amine hydrochloride]
36 | 2 | 2.1 | CCC/C=C/c1cnc2ccc(NCc3ccccn3)nn12 [Example 19, (E)-3-(Pent-1-enyl)-N-(pyridin-2-ylmethyl)imidazo[1,2-b]pyridazin-6-amine hydrochloride]
37 | 5.8 | 9 | CCCCC#Cc1cnc2ccc(NCCCN3CCOCC3)nn12 [Example 26, 3-(Hex-1-ynyl)-N-(3-morpholinopropyl)imidazo[1,2-b]pyridazin-6-amine hydrochloride]
38 | 13 | 23 | CCCC/C=C/c1cnc2ccc(NCCCCO)nn12 [Example 37, (E)-4-(3-(Hex-1-enyl)imidazo[1,2-b]pyridazin-6-ylamino)butan-1-ol hydrochloride]
39 | 0.77 | 1.1 | CCCC/C=C/c1cnc2ccc(NCCCN(C)C)nn12 [Example 39, (E)-N^1-(3-(Hex-1-enyl)imidazo[1,2-b]pyridazin-6-yl)-N^3,N^3-dimethylpropane-1,3-diamine hydrochloride]
40 | 34 | 17 | CCCC/C=C/c1cnc2ccc(NCCO)nn12 [Example 42, (E)-2-(3-(Hex-1-enyl)imidazo[1,2-b]pyridazin-6-ylamino)ethanol hydrochloride]
41 | 11 | 4.3 | CCCC/C=C/c1cnc2ccc(NCc3ccncc3)nn12 [Example 43, (E)-3-(Hex-1-enyl)-N-(pyridin-4-ylmethyl)imidazo[1,2-b]pyridazin-6-amine]
42 | 4.7 | 2.3 | CCCC/C=C/c1cnc2ccc(NCc3cccnc3)nn12 [Example 45, (E)-3-(Hex-1-enyl)-N-(pyridin-3-ylmethyl)imidazo[1,2-b]pyridazin-6-amine]
43 | 8.2 | 5 | CCCC/C=C/c1cnc2ccc(NCCCCN(C)C)nn12 [Example 46, (E)-N^1-(3-(Hex-1-enyl)imidazo[1,2-b]pyridazin-6-yl)-N^4,N^4-dimethylbutane-1,4-diamine]
